Measured values from paper PMC9695642, “Conservation of Importin α Function in Apicomplexans: Ivermectin and GW5074 Target Plasmodium falciparum Importin α and Inhibit Parasite Growth in Culture” (International Journal of Molecular Sciences, 2022).
Where “and” joins values, the source holds several entries; their conditions need not be identical. Identical values can stand only once. Like-named read-outs stand apart in the source and are kept apart here. Values belong to the molecule of their own block, whether it stands above or below them.

Columns and labels:
[1] = target: T1, PfIMPα (Plasmodium falciparum, UniProt Q8IAW0); assay: AlphaScreen inhibition of PfIMPα binding to TGS1-NLS-GFP
Excerpt: (§1) Inhibitors of mammalian IMPα function are of key interest as anti-infectious agents. One of the first described is the small molecule macrocyclic lactone ivermectin, produced by the bacterium Streptomyces avermitilis, that is approved by the US Food and Drug Administration for parasitic infections. […] Chemically distinct from ivermectin, GW5074 (3-(3,5-dibromo-4-hydroxybenzyliden)-5-iodo-1,3-dihydroindol-2-one) binds to mammalian IMPα with analogous structural effects on IMPα and inhibitory effects on NLS recognition/IMPβ1 binding by IMPα [24]. […] We set out to test the activity of these inhibitors with respect to NLS binding by PfIMPα and TgIMPα, with NLS binding by MmIMPα analysed in parallel (Figure 3; Table 3). As expected, ivermectin and GW5074 inhibited MmΔIBBIMPα-SV40 T-ag with IC50 values of 5–6 µM, consistent with published data. […] The results clearly indicate that chemical inhibitors known to target mammalian IMPα can inhibit apicomplexan IMPα, underlining the structural and functional conservation of IMPα from apicomplexans to mammalian systems.
(§2) Figure 3 Ivermectin and GW5074 inhibit IMPα-NLS interaction at low micromolar concentration. AlphaScreen technology was used to determine the IC50 for inhibition by ivermectin and GW5074 binding of IMPαs (5 nM) to NLS (30 nM). Data represent the mean ± SEM for quadruplet wells from a single experiment, from a series of 3 independent experiments (see Table 3 for pooled data).
(§3) PfIMPα, TgIMPα, MmIMPα, ΔIBBMmIMPα, and MmIMPβ1 GST fusion proteins were expressed and purified essentially as previously. His-tagged T-ag-NLS-GFP, TGS1-NLS-GFP, GCN5-NLS-GFP, PfIMPα, and TgIMPα proteins were all purified using Ni^2+-affinity chromatography, as previously. Biotinylation of GST-tagged proteins was carried out using the Sulfo-NHS-Biotin reagent (Pierce, Rockford, IL, USA), as described previously. The AlphaScreen binding assay was performed as previously.

[2] = target: TgIMPα (Toxoplasma gondii, UniProt A0A125YID0); assay: AlphaScreen inhibition of TgIMPα binding to T-ag-NLS-GFP
Excerpt: as §1, §2, §3

[3] = target: T2, MmΔIBBIMPα (Mus musculus, UniProt P52293); assay: AlphaScreen inhibition of MmΔIBBIMPα binding to T-ag-NLS-GFP
T2 construct: GST; made in house
Excerpt: as §1, §2, §3

[4] = target: PfIMPα:MmIMPβ1 (Plasmodium falciparum, UniProt Q8IAW0); assay: AlphaScreen inhibition of PfIMPα binding to MmIMPβ1
Excerpt: (§4) As indicated, both ivermectin and GW5074 have been previously shown to inhibit interaction between mammalian IMPα and IMPβ1 [24, 32]. We tested their activity towards apicomplexan IMPα (Figure 4; Table 4). As previously observed, binding of MmIMPα:MmIMPβ1 was inhibited strongly by both agents, with IC50 values of c. […] Clearly, ivermectin and GW5074 are able to act on apicomplexan IMPα in analogous fashion to MmIMPα in terms of the ability to bind to IMPβ1, the results further underlining the structural and functional conservation of IMPα from apicomplexans to mammalian systems.
(§5) Figure 4 Ivermectin and GW5074 inhibit IMPα–IMPβ interaction. AlphaScreen technology was used to determine the IC50 for inhibition by ivermectin and GW5074-binding of IMPβ (30 nM) to IMPαs (30 nM). Data represent the mean ± SEM for quadruplet wells from a single experiment, from a series of three independent experiments (see Table 4 for pooled data).
as §3

[5] = target: TgIMPα:MmIMPβ1 (Toxoplasma gondii, UniProt A0A125YID0); assay: AlphaScreen inhibition of TgIMPα binding to MmIMPβ1
Excerpt: as §4, §5, §3

[6] = target: T3, MmIMPα:MmIMPβ1 (Mus musculus, UniProt P52293); assay: AlphaScreen inhibition of MmIMPα binding to MmIMPβ1
T3 construct: His; made in house
Excerpt: as §4, §5, §3

[7] = target: T1, PfIMPα; assay: Far-UV CD spectroscopy, α-helical content of PfIMPα with compound; format: binding; settings: PfIMPα alone c. 63 % α-helical
Protocol: Previous analysis for MmIMPα using several biophysical approaches had established that the mechanism by which both ivermectin and GW5074 have an impact on NLS and IMPβ1 binding by MmIMPα is by direct binding to the ARM repeat domain of IMPα to perturb structural conformation. […] 63 % α-helical, compared to c. 70 % for MmIMPα (Figure 5b).
CD spectra were also analysed in the presence of increasing concentrations of ivermectin and GW5074, with both agents having a marked impact on the structure, especially at high concentrations (Figure 5a,b), consistent with the idea that both bind to the proteins directly to perturb structure. PfIMPα appeared to be particularly susceptible to both agents, with 30 µM GW5074 reducing α-helicity by more than a half (Figure 5a,b) to a residual value of 30%, which fell below 10% in the presence of 80 µM GW5074. […] 20% at 80 µM. The results, overall, indicate that both ivermectin and GW5074 can bind to and destabilise the structure of both PfIMPα and TgIMPα in analogous fashion to their known effects on mammalian IMPα, further underlining the conservation of structure and function between apicomplexan and mammalian IMPαs.
Figure 5 CD spectra for apicomplexan and mammalian IMPαs in the absence and presence of ivermectin and GW5074. CD spectra were collected for PfIMPα, TgIMPα, and MmIMPα in the absence or presence of 30 μM and 80 μM ivermectin and GW5074. (a) Spectra shown are from a single experiment, representative of two independent experiments for 30 μM concentration of ivermectin and GW5074. Note: θ is ellipticity. […]
CD spectroscopy was used to study the binding of ivermectin and GW5074 to PfIMPα, TgIMPα and MmIMPα, as previously described. CD spectra of the proteins at 0.1 mg/mL concentration were recorded from 200–260 nm using Jasco CD spectrometer (Jasco, Portland, OR, USA). CD spectra of the IMPαs were also measured in the presence of 30 µM and 80 µM concentrations of the ivermectin and GW5074 compounds. Percentage α-helix content was calculated from the ellipticity at 222 nm as described in [51]. […]

[8] = tested on: P. falciparum 3D7 strain; assay: P. falciparum growth inhibition, HRP2-based sandwich ELISA; format: cell-based, Plasmodium falciparum
Excerpt: To test the potential antimalarial action of GW5074, we compared the activity of GW5074 to ivermectin against the asexual stages of P. falciparum parasites, using an established HRP2-based (histidine-rich protein 2) ELISA [38, 39, 40]. The assay uses a sandwich ELISA to measure HRP2 levels as an indicator of parasite growth; the clinically prescribed drug dihydroartemisinin (DHA) was used as a positive control.
Figure 6 Ivermectin and GW5074 inhibit P. falciparum parasites in culture at low µM concentrations. P. falciparum cultures (0.25% parasitemia) were treated with increasing concentrations of the indicated compounds for 72 h, after which the HRP2-based sandwich ELISA was used to measure the HRP2 levels, determined by optical density. The results shown are from a single typical experiment performed in duplicate (SD shown), representative of a series of three independent experiments (see Table 5 for pooled data).
P. falciparum 3D7 strain was cultured and maintained in human red blood cells (RBCs) using RPMI (Roswell Park Memorial Institute) 1640 medium supplemented with 0.5% Albumax (GibcoTM, Waltham, MA, USA), 50 mg/L hypoxanthine (Sigma-Aldrich, St. Louis, MO, USA), 2 g/L D-glucose (Sigma-Aldrich, St. Louis, MO, USA), 2 g/L sodium bicarbonate (Sigma-Aldrich, St. Louis, MO, USA), and 56 mg/L of gentamicin (Abbott, Chicago, IL, USA) at 37 °C in 5% CO2 in a humidified incubator, according to the standard procedures. Cultures presynchronised using 5% D-sorbitol (Sigma-Aldrich, St. Louis, MO, USA) to obtain predominantly the ring stage of the P. falciparum life cycle were used for the growth assays, as previously. DHA (a gift from IPCA Laboratories, Mumbai, India) was used as a control. Growth assays in the absence and presence of inhibitors were performed using the HRP2 sandwich horseradish peroxidase-linked immunosorbent assay that measures HRP2 levels as an indicator of growth.

[9] = AlphaScreen, IMPα 5 nM, NLS 30 nM, pooled mean ± SEM (n = 3), read-out: IC50, inhibition of PfIMPα:TGS1 NLS binding
[10] = single experiment of a series of 3, read-out: IC50, PfIMPα:TGS1-NLS-GFP (Figure 3)
[11] = AlphaScreen, IMPα 5 nM, NLS 30 nM, pooled mean ± SEM (n = 3), read-out: IC50, inhibition of TgIMPα:SV40 T-ag NLS binding
[12] = single experiment of a series of 3, read-out: IC50, TgIMPα:T-ag-NLS-GFP (Figure 3)
[13] = AlphaScreen, IMPα 5 nM, NLS 30 nM, pooled mean ± SEM (n = 3), read-out: IC50, inhibition of ΔIBBmIMPα:SV40 T-ag NLS binding
[14] = single experiment of a series of 3, read-out: IC50, MmΔIBBIMPα:T-ag-NLS-GFP (Figure 3)
[15] = AlphaScreen, IMPβ 30 nM, IMPα 30 nM, pooled mean ± SEM (n = 3), read-out: IC50, inhibition of PfIMPα:MmIMPβ1 binding
[16] = single experiment of a series of three, read-out: IC50, PfIMPα:MmIMPβ1 (Figure 4)
[17] = AlphaScreen, IMPβ 30 nM, IMPα 30 nM, pooled mean ± SEM (n = 3), read-out: IC50, inhibition of TgIMPα:MmIMPβ1 binding
[18] = single experiment of a series of three, read-out: IC50, TgIMPα:MmIMPβ1 (Figure 4)
[19] = AlphaScreen, IMPβ 30 nM, IMPα 30 nM, pooled mean ± SEM (n = 3), read-out: IC50, inhibition of MmIMPα:MmIMPβ1 binding
[20] = single experiment of a series of three, read-out: IC50, MmIMPα:MmIMPβ1 (Figure 4)
[21] = Plasmodium falciparum, 3D7, 72 h, 72 h, single typical experiment in duplicate, read-out: IC50, P. falciparum growth (Figure 6)
[22] = Plasmodium falciparum, 3D7, 72 h, asexual stages, 72 h, pooled mean ± SD (n = 3), read-out: IC50, inhibition of growth of P. falciparum parasites in culture
[23] = asexual stages, 72 h, pooled mean ± SD (n = 3), read-out: IC50, inhibition of growth of P. falciparum parasites in culture

Molecule: O=C1Nc2ccc(I)cc2C1=Cc1cc(Br)c(O)c(Br)c1 [GW5074, 3-(3,5-dibromo-4-hydroxybenzyliden)-5-iodo-1,3-dihydroindol-2-one]
IC50 [1, 9]: 6.5 ± 0.4 µM
IC50 [1, 10]: 6 µM
IC50 [2, 11]: 7.7 ± 1.9 µM
IC50 [2, 12]: 5.4 µM
IC50 [3, 13]: 4.9 ± 1.4 µM
IC50 [3, 14]: 2.2 µM
IC50 [4, 15]: 41 ± 1.5 µM
IC50 [4, 16]: 39 µM
IC50 [5, 17]: 11 ± 1.5 µM
IC50 [5, 18]: 13 µM
IC50 [6, 19]: ~22 µM and 22 µM
IC50 [6, 20]: 23 µM
residual α-helicity of PfIMPα ([7]; 30 µM compound): 30%
residual α-helicity of PfIMPα ([7]; 80 µM compound): below 10%
IC50 [8, 21]: 6.5 µM
IC50 [8, 22]: ~6 µM
IC50 [8, 23]: 5.5 ± 0.9 µM

IC50 [8, 21]: 0.0007 µM
IC50 [8, 22]: 0.001 ± 0.0005 µM
IC50 ([8]; Plasmodium falciparum, 3D7, asexual stages, approximate value, read-out: IC50, P. falciparum growth): ~0.001 µM
Molecule: C[C@H]1[C@@H](O)O[C@@H]2O[C@@]3(C)CC[C@H]4[C@H](C)CC[C@@H]1[C@@]24OO3 [DHA, dihydroartemisinin]

Molecule: ivermectin
IC50 [1, 9]: 5 ± 1.3 µM
IC50 [1, 10]: 2.4 µM
IC50 ([2]; AlphaScreen, IMPα 5 nM, NLS 30 nM, pooled mean ± SEM (n = 3), listed as ivermectin, read-out: IC50, inhibition of TgIMPα:SV40 T-ag NLS binding): 5 µM
IC50 [2, 11]: 4.9 ± 0.2 µM
IC50 [2, 12]: 5.2 µM
IC50 ([3]; AlphaScreen, IMPα 5 nM, NLS 30 nM, pooled mean ± SEM (n = 3), listed as ivermectin, read-out: IC50, inhibition of ΔIBBmIMPα:SV40 T-ag NLS binding): 5 to 6 µM
IC50 [3, 13]: 6.2 ± 0.2 µM
IC50 [3, 14]: 6.3 µM
IC50 ([4]; AlphaScreen, IMPβ 30 nM, IMPα 30 nM, pooled mean ± SEM (n = 3), listed as ivermectin, read-out: IC50, inhibition of PfIMPα:MmIMPβ1 binding): 2 to 7 µM
IC50 [4, 15]: 1.9 ± 0.2 µM
IC50 [4, 16]: 1.5 µM
IC50 ([5]; AlphaScreen, IMPβ 30 nM, IMPα 30 nM, pooled mean ± SEM (n = 3), listed as ivermectin, read-out: IC50, inhibition of TgIMPα:MmIMPβ1 binding): 2 to 7 µM
IC50 [5, 17]: 6.9 ± 1.2 µM
IC50 [5, 18]: 5.4 µM
IC50 ([6]; AlphaScreen, IMPβ 30 nM, IMPα 30 nM, pooled mean ± SEM (n = 3), listed as ivermectin, read-out: IC50, inhibition of MmIMPα:MmIMPβ1 binding): ~3 µM
IC50 [6, 19]: 3.1 ± 0.5 µM
IC50 [6, 20]: 3.9 µM
residual α-helicity of PfIMPα ([7]; 80 µM compound): ~20%
IC50 ([8]; 72 h, single typical experiment in duplicate, read-out: IC50, P. falciparum growth (Figure 6)): 1 µM
IC50 ([8]; asexual stages, 72 h, pooled mean ± SD (n = 3), listed as ivermectin, read-out: IC50, inhibition of growth of P. falciparum parasites in culture): ~1 µM
IC50 [8, 23]: 0.7 ± 0.1 µM
